From US20090203010A1, “MSMB-gene based diagnosis, staging and prognosis of prostate cancer” (Katholieke Universiteit Leuven, K.U. Leuven R&D, priority 2008, published 2009)

Legend:
Assay type in all cases: cell-based, Human
[1] = system: MSMB gene; assay: Quantitative RT-PCR of the MSMB transcript level in PC-3 cells
Description: (a) The relative amounts of EZH2 (left panel) and MSMB transcripts (right panel) in the indicated prostate cell lines were determined by quantitative RT-PCR with intron-spanning primers. Human prostate PC-3 cells (adenocarcinoma), LNCaP cells (carcinoma) and DU 145 cells (carcinoma) were cultured as monolayers in 50% Dulbecco's modified Eagle's medium (DMEM) and 50% Ham's F12, RPMI1640 and DMEM, respectively, supplemented with 10% fetal calf serum. PZ-HPV-7 cells, an immortalized cell line derived from normal human prostate cells, were cultured in keratinocyte-serum free medium supplemented with 5 ng/ml human recombinant epidermal growth factor and 0.05 mg/ml bovine pituitary extract. Total RNA was isolated using the Genelute Mammalian Total RNA Miniprep kit (Sigma, St. Louis, Mo., USA). A total of […] RNA was reverse-transcribed with oligo dT primer (Sigma) and the M-MulV reverse transcriptase (Fermentas GMBH, St. Leon-Rot, Germany). cDNA (1.5%) was analyzed by real-time PCR in triplicate using a Platinum SYBR Green qPCR SuperMix-UDG (Invitrogen, Paisly, UK) in a Rotorgene detection system (Corbett Research, Cambridge, UK) and normalized to the housekeeping gene hypoxanthine-guanine-phosphoribosyl-transferase (HPRT). […] The DNA was recovered with the Genelute PCR clean-up kit (Sigma) and analyzed by real-time PCR. […] The enrichment of DNA was calculated using the formula:fold enrichment=^2(CtlgG-CtAb), where Ct is the threshold cycle, IgG is the normal rabbit IgG and Ab is the specific antibody.
FIG. 2 concerns how EZH2 is recruited to the MSMB gene and causes trimethylation of H3K27. […] (b) Immunoblotting (upper panel) and quantitative RT-PCR analysis (lower panel) of PC-3 cell lysates, obtained after transfection with either a control siRNA (Ctr), that is, a scrambled version of a siRNA duplex for the housekeeping gene PPP1R8 ([…] (SEQ ID NO:71), Invitrogen) or an EZH2 siRNA (KD; […] (SEQ ID NO:72), Dharmacon, Chicago, Ill., USA). […] SIPP1 served as a loading control for the immunoblotting and ACTIN was used as control for normalization in the quantitative RT-PCR. […]

[2] = system: CpG island in the promoter region of the MSMB gene; assay: DNA bisulfite sequencing of the MSMB CpG island in PC-3 cells; conditions: following addition of the DNA methyltransferase inhibitor
Description: (a) PC-3 cells were treated for 48 hours with […] of the DNA methyltransferase inhibitor […]. Subsequently, the steady-state levels of the MSMB and EZH2 transcripts were determined by quantitative RT-PCR analysis with intron-spanning primers specific for the indicated genes. The data were expressed relative to the transcript level in the control condition. HPRT was used as a control for normalization. (b) A schematic representation of the MSMB gene on scale. The four exons are indicated by the black boxes and the two analyzed CpG regions by black stars. TSS, transcriptional start site. Methylated CG dinucleotides are denoted underneath by closed circles and unmethylated CGs by open circles. Genomic DNA of PC-3 cells or LNCaP cells was purified with the GenElute Mammalian Genomic DNA Miniprep kit of Sigma. Two microgram was digested overnight with BglII. The DNA was denatured with 0.3 M NaOH at […] for 30 minutes. Sodium bisulfite (3.3 M) and hydroquinone (0.5 mM) were added to the DNA and the mixture was incubated overnight at 55° C.
The DNA was purified with the PCR purification kit of Sigma, St Louis, Mo., USA. The DNA was desulfonated with […] for 15 minutes at 37° C. and precipitated by adding NH4Ac and ethanol. The pellet was air-dried and dissolved in 10 mM Tris and 1 mM ethylene-diaminete-traacetic acid at pH 8. […]

[3] = system: EZH2; assay: Quantitative RT-PCR of the EZH2 transcript level in PC-3 cells
Description: (§1) (a) The relative amounts of EZH2 (left panel) and MSMB transcripts (right panel) in the indicated prostate cell lines were determined by quantitative RT-PCR with intron-spanning primers. Human prostate PC-3 cells (adenocarcinoma), LNCaP cells (carcinoma) and DU 145 cells (carcinoma) were cultured as monolayers in 50% Dulbecco's modified Eagle's medium (DMEM) and 50% Ham's F12, RPMI1640 and DMEM, respectively, supplemented with 10% fetal calf serum. PZ-HPV-7 cells, an immortalized cell line derived from normal human prostate cells, were cultured in keratinocyte-serum free medium supplemented with 5 ng/ml human recombinant epidermal growth factor and 0.05 mg/ml bovine pituitary extract. […] A total of 1-5 mg RNA was reverse-transcribed with oligo dT primer (Sigma) and the M-MulV reverse transcriptase (Fermentas GMBH, St. Leon-Rot, Germany). cDNA (1.5%) was analyzed by real-time PCR in triplicate using a Platinum SYBR Green qPCR SuperMix-UDG (Invitrogen, Paisly, UK) in a Rotorgene detection system (Corbett Research, Cambridge, UK) and normalized to the housekeeping gene hypoxanthine-guanine-phosphoribosyl-transferase (HPRT). […] The DNA was recovered with the Genelute PCR clean-up kit (Sigma) and analyzed by real-time PCR. […]
(§2) FIG. 2 concerns how EZH2 is recruited to the MSMB gene and causes trimethylation of H3K27. […] The enrichment on MSMB is expressed as a %±s.e. of the control value (n=3-4). […]

[4] = system: EZH2 association with the MSMB gene; assay: ChIP with anti-EZH2 antibodies on the MSMB gene in PC-3 cells; conditions: 48 hours, loss only evident in intron 1 (primer sets 3 and 4)
Description: as §1, §2

[5] = system: PPP1R8; assay: Quantitative RT-PCR of the housekeeping gene PPP1R8 transcript in PC-3 cells; conditions: siRNA transfection 48 hours
Description: FIG. 2 concerns how EZH2 is recruited to the MSMB gene and causes trimethylation of H3K27. (a) ChIP assays were performed in PC-3 cells using rabbit antibodies against a synthetic peptide of human EZH2 (E. Viré et al. (2006), Nature 439:871-874), trimethylated H3K27 (Upstate), trimethylated H3K9 (Upstate) and control IgGs. […] (b) Immunoblotting (upper panel) and quantitative RT-PCR analysis (lower panel) of PC-3 cell lysates, obtained after transfection with either a control siRNA (Ctr), that is, a scrambled version of a siRNA duplex for the housekeeping gene PPP1R8 ([…] (SEQ ID NO:71), Invitrogen) or an EZH2 siRNA (KD; […] (SEQ ID NO:72), Dharmacon, Chicago, Ill., USA). The PC-3 cells were plated at 1.2×10^6 cells in a 10 cm plate. At 24 hours after plating, the cells were transfected with 300 nM of siRNA duplex using Lipofectamine 2000 (Invitrogen). At 48 hours after transfection, the cells were harvested. SIPP1 served as a loading control for the immunoblotting and ACTIN was used as control for normalization in the quantitative RT-PCR. […] The immunoprecipitated DNA was analyzed by quantitative PCR using primers specific for the MSMB gene (FIG. 1, Panel b). The enrichment on MSMB is expressed as a %±s.e. of the control value (n=3-4). […]

[6] = system: H3K27 trimethylation of the MSMB gene; assay: ChIP with anti-H3K27me3 antibodies on the MSMB gene in PC-3 cells; conditions: 48 hours after siRNA transfection
Description: as §1, §2

How did the “reactivation of the MSMB gene” value [1] turn out when `Nc1ncn([C@@H]2O[C@H](CO)[C@@H](O)[C@H]2O)c(=O)n1` [50-azacytidine] was run?
The value was “reactivated”.

What about the “methylation of the CpG island in the promoter region (upstream CpG island) of the MSMB gene” value [2] of the same compound?
The value was “decreased”.

What about the “methylation of the CpG island in the promoter region (upstream CpG island) of the MSMB gene” value ([2]; listed as 5′ azacytidine) of the same compound?
Its value is “decreased methylation”.

`CC(/C=C/C(=O)NO)=C\[C@@H](C)C(=O)c1ccc(N(C)C)cc1` [TSA, trichostatin A] was tested. Which “expression level of EZH2” value ([3]; TSA 50 ng/ml for nine hours) did it give?
The value was “did not affect”.

What about the “increase of the MSMB transcript level” value ([1]; TSA 50 ng/ml for nine hours, relative to control condition) of the same compound?
Its value is “six”.

How did the “EZH2 associated with the MSMB gene (ChIP)” value [4] turn out when “AAGACUCUGAAUGCAGUUGCU (SEQ ID NO:72) [EZH2 siRNA]” was run?
The value was “less EZH2 was associated”.

And the “transcript level of control housekeeping gene PPP1R8” value [5]?
The value was “not affected”.

And the “knockdown of the EZH2 transcript” value ([3]; siRNA transfection 48 hours)?
The value was “about 70%”.

What about the “increase in the expression of MSMB” value ([1]; siRNA transfection 48 hours, relative to control siRNA) of the same compound?
Its value is “three”.

What about the “H3K27 trimethylation of the MSMB gene in intron 1 (ChIP)” value [6] of the same compound?
Its value is “loss of H3K27 trimethylation”.
